# According to the supplement of paper PMC11208160:
# Assay: recombinant UMI read abundance after kanamycin selection (control-corrected) (log10(CPM+1)); higher = more efficient recombination; extreme values may be limits of the assay; sequences stand for … in AGTGCAGAGAAAATCGGCCAGTTTTCTCTGCCTGCAGTCCGCATGCCGTGGGACCCCTTGGGTTCTAACCTGTTGCCTAGATTTATGCAGCGGACTGCCTTTCTCCCAAAGTGATAAACCGG…AGGTTGGTTTCACT; site = the 11-nt donor
# Outline: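 Reported values are log10(CPM+1) from a pooled Escherichia coli screen of donor and donor-binding-loop pairs for the IS621 bridge recombinase. Selection used IPTG (0.07 mM) plus kanamycin, against unselected plating, each in two replicates. Recombinant UMIs were amplified across the donor–target junction, sequenced, converted to CPM, averaged over replicates and scaled by control-derived factors.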
# 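Note: IS621 bridge recombinase in Escherichia coli cells against a fixed T5 target plasmid.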
row,Sequence,recombinant UMI read abundance (log10)
1,CCCCACCCATGGACCGGTTTTCCCGGTAATCCGTATTTGTA (site CCCCACACTTA),0.0263
2,CCCCACCCATGGACCGGTTTTCCCGGTAATCCGTATTTGTA (site CCCCACCCTTA),0.00842
3,CCCCACCCATGGACCGGTTTTCCCGGTAATCCGTATTTGTA (site CCCCACGCTTA),0.0484
4,CCCCACCCATGGACCGGTTTTCCCGGTAATCCGTATTTGTA (site CCCCACTCTTA),1.78
5,CCCCACTCATGGACCGGTTTTCCCGGTAATCCGTATTTGAC (site CCCCACTCTGT),1.04
6,CCCCATACATGGACCGGTTTTCCCGGTAATCCGTATTTGTA (site CCCCAAACTTA),0
7,CCCCATACATGGACCGGTTTTCCCGGTAATCCGTATTTGTA (site CCCCACACTTA),0.0183
8,CCCCATACATGGACCGGTTTTCCCGGTAATCCGTATTTGTA (site CCCCAGACTTA),0
9,CCCCATACATGGACCGGTTTTCCCGGTAATCCGTATTTGTA (site CCCCATACTTA),0.512
10,CCCCGTCCATGGACCGGTTTTCCCGGTAATCCGTATTTGCA (site CCCAGTCCTTG),0
11,CCCCGTCCATGGACCGGTTTTCCCGGTAATCCGTATTTGCA (site CCCCGTCCTTG),0.809
12,CCCCGTCCATGGACCGGTTTTCCCGGTAATCCGTATTTGCA (site CCCGGTCCTTG),0.0123
13,CCCCGTCCATGGACCGGTTTTCCCGGTAATCCGTATTTGCA (site CCCTGTCCTTG),0.00689
14,CCCCTCCCATGGACCGGTTTTCCCGGTAATCCGTATTTGCG (site CCCCTCCCTCG),0.014
15,CCCGACACATGGACCGGTTTTCCCGGTAATCCGTATTTGTA (site CCCAACACTTA),0.221
16,CCCGACACATGGACCGGTTTTCCCGGTAATCCGTATTTGTA (site CCCCACACTTA),0.00237

row,Sequence,recombinant UMI read abundance (log10)
1,CCCGACACATGGACCGGTTTTCCCGGTAATCCGTATTTGTA (site CCCGACACTTA),0.974
2,CCCGACACATGGACCGGTTTTCCCGGTAATCCGTATTTGTA (site CCCTACACTTA),0.0106
3,CCCGCGTCATGGACCGGTTTTCCCGGTAATCCGTATTTGTC (site CCCGCGTCTGA),0.515
4,CCCGGTACATGGACCGGTTTTCCCGGTAATCCGTATTTGCA (site CCCGGTACTTG),0.751
5,CCCGGTACATGGACCGGTTTTCCCGGTAATCCGTATTTGCA (site CCCGGTCCTTG),0
6,CCCGGTACATGGACCGGTTTTCCCGGTAATCCGTATTTGCA (site CCCGGTGCTTG),0
7,CCCGGTACATGGACCGGTTTTCCCGGTAATCCGTATTTGCA (site CCCGGTTCTTG),0
8,CCCGGTGCATGGACCGGTTTTCCCGGTAATCCGTATTTGAT (site CCAGGTGCTAT),0.119
9,CCCGGTGCATGGACCGGTTTTCCCGGTAATCCGTATTTGAT (site CCCGGTGCTAT),0.907
10,CCCGGTGCATGGACCGGTTTTCCCGGTAATCCGTATTTGAT (site CCGGGTGCTAT),0.0111
11,CCCGGTGCATGGACCGGTTTTCCCGGTAATCCGTATTTGAT (site CCTGGTGCTAT),0.00284
12,CCCGGTGCATGGACCGGTTTTCCCGGTAATCCGTATTTGCA (site CCCGGTACTTG),0
13,CCCGGTGCATGGACCGGTTTTCCCGGTAATCCGTATTTGCA (site CCCGGTCCTTG),0.0126
14,CCCGGTGCATGGACCGGTTTTCCCGGTAATCCGTATTTGCA (site CCCGGTGCTTG),0
15,CCCGGTGCATGGACCGGTTTTCCCGGTAATCCGTATTTGCA (site CCCGGTTCTTG),0
16,CCCGTATCATGGACCGGTTTTCCCGGTAATCCGTATTTGTC (site CCCATATCTGA),0.605
